Measurements published in BindingDB's records for patent US20250282741 (Innovo Therapeutics, 2025).

Target: T1, Serpin H1 (Human, UniProt P50454)
T1 sequence (P50454 whole entry): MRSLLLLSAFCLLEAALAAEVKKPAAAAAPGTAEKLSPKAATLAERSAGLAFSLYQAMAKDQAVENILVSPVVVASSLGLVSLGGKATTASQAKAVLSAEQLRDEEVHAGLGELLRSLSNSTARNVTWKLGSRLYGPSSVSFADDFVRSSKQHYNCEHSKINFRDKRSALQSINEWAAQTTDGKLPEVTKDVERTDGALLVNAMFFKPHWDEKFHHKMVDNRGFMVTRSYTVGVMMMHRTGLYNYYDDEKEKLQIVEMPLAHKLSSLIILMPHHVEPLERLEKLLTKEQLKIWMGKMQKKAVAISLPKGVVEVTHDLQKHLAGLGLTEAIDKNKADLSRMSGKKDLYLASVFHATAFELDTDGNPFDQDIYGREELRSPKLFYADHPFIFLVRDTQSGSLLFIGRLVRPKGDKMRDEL
Assay: Inhibition of HSP47 Function
Protocol: Fibrils were formed by adding 180 ul of phosphate-buffered saline (PBS, pH 7.4) solution to 20 ul of collagen dissolved in acidic solution (collagen solution, UK), which was measured at a wavelength of 340 nm. HSP47 (GenScript US) was added at a concentration of 9.45 μg/ml to assess HSP47 activity as the degree to which it inhibits fibril formation. Test compound was added with concentrations of 100 μM to 1 μM and the inhibitory activity of HSP47 was calculated as a percentage or EC50.

EC50 [µM]	SMILES
73.1	CCc1oc2cc(Cl)ccc2c1C(=O)c1cc(Br)c(O)c(Br)c1 [US20250282741, Example 12]
15.9	CCc1oc2c(Cl)cccc2c1C(=O)c1cc(I)c(O)c(I)c1 [US20250282741, Example 14]
32.1	CCc1oc2cc(C(F)(F)F)ccc2c1C(=O)c1cc(Br)c(O)c(Br)c1 [US20250282741, Example 22]
